Measurements from paper PMC548510, “Inhibition of early steps in the lentiviral replication cycle by cathelicidin host defense peptides” (Retrovirology, 2005).
Like-named read-outs stand apart in the source and are kept apart here.

Columns and labels:
[1] = test system: S. epidermidis; assay: radial diffusion assay (growth inhibition); type: cell-based, Staphylococcus epidermidis (ATCC 12228); settings: 1% agarose underlay, 10 mM sodium phosphate, 100 mM NaCl, pH 7.4, 3 individual experiments, quadruplicates
[2] = test system: S. aureus; type: cell-based, Staphylococcus aureus (ATCC 25923); settings: radial diffusion, 1% agarose underlay, 10 mM sodium phosphate, 100 mM NaCl, pH 7.4, 3 individual experiments, quadruplicates
[3] = test system: E. coli; type: cell-based, Escherichia coli (ATCC 25922); settings: radial diffusion, 1% agarose underlay, 10 mM sodium phosphate, 100 mM NaCl, pH 7.4, 3 individual experiments, quadruplicates
[4] = test system: HIV vectors containing the HIV-1 envelope; parameters: IC50, HIV-1 Env mediated vector entry, as printed in the picture of Figure 6 A, B: unit not given beside the values
[5] = test system: retroviral vector (pRV-172) containing the amphotropic MLV Env; type: cell-based
[6] = test system: wild type HIV-1; parameters: IC50, wild type HIV-1 infection, as printed in the picture of Figure 6 C, D: unit not given beside the values; settings: for IC50, wild type HIV-1 infection, as printed in the picture of Figure 6 C, D: P4CCR5 indicator cells, virus titer
[7] = test system: VSV-G pseudotyped lentiviral vector VLΔBH
[8] = test system: A. baumanii; assay: radial diffusion assay (growth inhibition); type: cell-based, Acinetobacter baumannii (ATCC 19606); settings: 1% agarose underlay, 10 mM sodium phosphate, 100 mM NaCl, pH 7.4, 3 individual experiments, quadruplicates, > 128 = not susceptible
[9] = test system: P4CCR5 cells; assay: BrdU incorporation cell proliferation assay; type: cell-based
Protocol: 293-Luc cells were plated in 96 well plates at a density of 2 × 10^3 cells / well. After 48 hours, 50 μl of MTT-solution (3 mg/ml) was added and incubated at 37° C under 5% CO2 for 1 hour. After this time medium was removed and 100 μl 0.04 N HCL + 10% SDS was used to dissolve the resulting blue formazan crystals in living cells. The optical density was determined at 550 nm. Each single value of the triplicates was expressed as percent of the mean of triplicates of control cultures infected with the same vector in the absence of HDPs and the mean and the standard deviation of the percent values was calculated for each triplicate. In addition the BrdU Cell proliferation ELISA with chemiluminescence detection (Roche Diagnostics GmbH, Mannheim, Germany) was performed. After 293-Luc cells or P4CCR5 cells were plated in 96 well plates at a density of 2 × 10^3 cells/well BrdU (5-bromo-2'-deoxyuridine) was added to the cells with a resulting concentration of 10 μM for the last 22 h of the incubation period. After removing the culture medium, the cells were fixed and DNA was denatured in one step with Fixdenat. Thereafter the cells were incubated with Anti-BrdU-POD for 1 h at room temperature. The chemiluminescence detection was measured after automatic injection of substrate solution with a microplate-luminometer (Orion, Berthold detection systems, Pforzheim, Germany).
To determine the effect of HDPs on vector infectivity and cell metabolism, 293A target cells were plated in triplicates into 96-well plates at 2 × 10^3 cells / well. […] The affect of HDPs on cell metabolism was determined in parallel by plating 293-Luc cells exactly the same way as 293A cells and the luciferase activity was determined after one (as a control to inhibition of adenoviral vector infectivity) or two (as a control of lentiviral infectivity) days of incubation with HDPs. For GFP-expressing vectors, vector titers were calculated from the number of GFP positive cells per well as previously described and the BrdU incorporation assay was used to monitor cytotoxic effects.

[10] = test system: P. aeruginosa; assay: radial diffusion assay (growth inhibition); type: cell-based, Pseudomonas aeruginosa (ATCC 27853); settings: 1% agarose underlay, 10 mM sodium phosphate, 100 mM NaCl, pH 7.4, 3 individual experiments, quadruplicates, > 128 = not susceptible
[11] = test system: E. faecalis; assay: radial diffusion assay (growth inhibition); type: cell-based, Enterococcus faecalis (ATCC 29212); settings: 1% agarose underlay, 10 mM sodium phosphate, 100 mM NaCl, pH 7.4, 3 individual experiments, quadruplicates

Molecule | M E C (minimal effectory concentration) [1] | M E C (minimal effectory concentration) [2] | M E C (minimal effectory concentration) [3] | IC50, HIV-1 Env mediated vector entry, as printed in the picture of Figure 6 A, B [4] | dose dependent reduction in luciferase activity, MLV vector compared with lentiviral vector [5] | IC50, wild type HIV-1 infection, as printed in the picture of Figure 6 C, D [6] | IC50 against wild type HIV-1 ([6]; wild type) | 50% inhibitory concentration (IC50) for the VLΔBH lentiviral vector [7] | specific inhibition of early steps of infection (lentiviral vector versus stably transduced target cells) [7] | M E C (minimal effectory concentration) [8] | concentration up to which inhibitory effects on cell proliferation were not observed [9] | inhibitory effects on cell proliferation at the IC50 concentrations (25 μg/ml LL37, 14 μg/ml PG-1) [9] | M E C (minimal effectory concentration) [10] | M E C (minimal effectory concentration) [11] | IC50, HIV-1 Env mediated vector entry, as printed in the picture of Figure 6 A, B ([4]; P4CCR5 cells, GFP vector titer) | IC50, inhibition of HIV vectors containing the HIV-1 envelope ([4]; vectors containing the envelope) | dose dependent reduction in luciferase activity, MLV vector compared with lentiviral vector ([5]; 293A cells, triplicates of two independent experiments)
CC(C)C[C@H](NC(=O)[C@H](CCCNC(=N)N)NC(=O)CNC(=O)CNC(=O)[C@@H](N)CCCNC(=N)N)C(=O)N[C@H]1CSSC[C@@H](C(=O)N[C@H](C(=O)NCC(=O)N[C@@H](CCCNC(=N)N)C(N)=O)C(C)C)NC(=O)[C@H](C(C)C)NC(=O)[C@@H]2CSSC[C@H](NC(=O)[C@H](Cc3ccc(O)cc3)NC1=O)C(=O)N[C@@H](CCCNC(=N)N)C(=O)N[C@@H](CCCNC(=N)N)C(=O)N[C@@H](CCCNC(=N)N)C(=O)N[C@@H](Cc1ccccc1)C(=O)N2 [Protegrin-1] | 4,48 ± 0,2 μg/ ml | 0,91 ± 0,04 μg/ ml | 2 ± 0,1 μg/ ml | 14.3 | very similar | 7.2 | below 10 μg/ml | ~16.8 µg/mL | Specific inhibition | 5,01 ± 0,2 μg/ ml | > 50 µg/mL | only minimal inhibitory effects | 3,3 ± 1,1 μg/ ml | 4,46 ± 0,3 μg/ ml |  |  | 
CC1(C)S[C@@H]2[C@H](NC(=O)[C@H](N)c3ccccc3)C(=O)N2[C@H]1C(=O)O [Ampicillin] |  | 10,50 ± 0,2 μg/ ml | 18,9 ± 0,9 μg/ ml |  |  |  |  |  |  |  |  |  |  | 28,85 ± 0,6 μg/ ml |  |  | 
CC[C@H](C)[C@H](NC(=O)[C@H](CCCCN)NC(=O)[C@H](CCC(=O)O)NC(=O)[C@H](CCCCN)NC(=O)[C@H](CO)NC(=O)[C@H](CCCCN)NC(=O)[C@H](CCCNC(=N)N)NC(=O)[C@H](Cc1ccccc1)NC(=O)[C@H](Cc1ccccc1)NC(=O)[C@H](CC(=O)O)NC(=O)CNC(=O)[C@H](CC(C)C)NC(=O)[C@@H](N)CC(C)C)C(=O)NCC(=O)N[C@@H](CCCCN)C(=O)N[C@@H](CCC(=O)O)C(=O)N[C@@H](Cc1ccccc1)C(=O)N[C@@H](CCCCN)C(=O)N[C@@H](CCCNC(=N)N)C(=O)N[C@H](C(=O)N[C@H](C(=O)N[C@@H](CCC(N)=O)C(=O)N[C@@H](CCCNC(=N)N)C(=O)N[C@H](C(=O)N[C@@H](CCCCN)C(=O)N[C@@H](CC(=O)O)C(=O)N[C@@H](Cc1ccccc1)C(=O)N[C@@H](CC(C)C)C(=O)N[C@@H](CCCNC(=N)N)C(=O)N[C@@H](CC(N)=O)C(=O)N[C@@H](CC(C)C)C(=O)N[C@H](C(=O)N1CCC[C@H]1C(=O)N[C@@H](CCCNC(=N)N)C(=O)N[C@H](C(=O)N[C@@H](CCC(=O)O)C(=O)N[C@@H](CO)C(=O)O)[C@@H](C)O)C(C)C)[C@@H](C)CC)C(C)C)[C@@H](C)CC [LL37] | 13,09 ± 0,6 μg/ ml | 4,74 ± 0,1 μg/ ml | 11,66 ± 1,5 μg/ ml |  |  | 87.8 |  | approximately 30 μg/ml | Specific inhibition | 13,13 ± 0,2 μg/ ml |  | only minimal inhibitory effects |  | 13,61 ± 0,7 μg/ ml | 25.1 | 25 µg/mL | very similar
Plectasin | 8,20 ± 0,5 μg/ ml | 2,42 ± 0,4 μg/ ml | 79,10 ± 0,3 μg/ ml |  |  |  |  |  |  | > 128 µg/mL |  |  | > 128 µg/mL | 10,60 ± 0,7 μg/ ml |  |  | 
